The experiment relates to clonic seizures caused by pentylenetetrazole. The experiment in a line: Protection against clonic seizures caused by pentylenetetrazole in rats (oral). It is filed as in vivo. The following applies: Rattus norvegicus, rats (at least 5 per group), 2% starch vehicle, pentylenetetrazole 21 to 23 mg./kg. intravenously at estimated time of peak effect, protection of 50% of animals, read-out: MEDIAN EFFECTIVE ORAL DOSE ED50. The method, then: The anti-anxiety properties of the compounds of the present invention have been established in a test which indicates anxiolytic activity by a measure of protection from convulsions resulting from the administration of pentylenetetrazole. Graded dose levels of the compounds of this invention are administered orally, in a 2% starch vehicle, to groups of at least 5 rats. At the estimated time of peak effect, the rats are treated intravenously with pentylenetetrazole at a dose of 21 to 23 mg./kg. of body weight. This dose is estimated to cause clonic seizures in 99% of unprotected rats. The effective dose of the test compound for protection of 50% of the animals is calculated by the method of D. H. Finney in Statistical Methods in Biological Assay, Second Edition, Hafner Publishing Co., New York, 1964, pp. 456- 457. Representative results are given in the table which follows in comparison with Librium (chlordiazepoxide) or Valium (diazepam), all of which were tested in exactly the same manner. It has been reported [R. T. Hill and D. H. Tedeschi, "Animal Testing and Screening Procedures in Evaluating Psychotropic Drugs" in An Introduction to Psychopharmacology, Eds. R. R. Rech and K. E. Moore, Raven Press, New York, pp. 237-288 (1971)] that there is a high degree of correlation between antagonism of pentylenetetrazole seizures in rats and antianxiety effects in higher warm-blooded animals.

Each structure is given as a SMILES string. Where a name gives a salt, the structure may show the parent alone.

`CN1C(=O)C2CCCN2Cc2ccccc21` (racemic) [Racemic 1,2,3,5,10,11a-hexahydro-10-methyl-11H-pyrrolo[2,1-c][1,4]benzodiazepin-11-one hydrochloride]: the ED50 (commonly the dose that gives a 50% effect, or the effect in half of the subjects) was 66 mg/kg.

On to `CN1C(=O)CN=C(c2ccccc2)c2cc(Cl)ccc21` [Valium (diazepam), diazepam, reference compound], for which the ED50 was 1.8 mg/kg.

Take `CNC1=Nc2ccc(Cl)cc2C(c2ccccc2)=[N+]([O-])C1` [Librium (chlordiazepoxide), chlordiazepoxide, reference compound]: the ED50 is 2.5 mg/kg.

For the molecule `CN1C(=O)[C@@H]2CCCN2Cc2ccccc21` [Dextro 1,2,3,5,10,11a-hexahydro-10-methyl-11H-pyrrolo[2,1-c][1,4]-benzodiazepin-11-one hydrochloride], the ED50 was 15 mg/kg.

Take `CN1C(=O)[C@@H]2CCCN2Cc2cc(Cl)ccc21` [Dextro 7-chloro-1,2,3,5,10,11a-hexahydro-10-methyl-11H-pyrrolo[2,1-c][1,4]benzodiazepin-11-one hydrochloride]: the ED50 is 80 mg/kg.

For `CN1C(=O)C2CCCN2Cc2cc(Cl)ccc21` (racemic) [Racemic 7-chloro-1,2,3,5,10,11a-hexahydro-10-methyl-11H-pyrrolo[2,1-c][1,4]benzodiazepin-11-one hydrochloride], the ED50 was 91 mg/kg.

In the case of `Cc1ccc2c(c1)CN1CCC[C@H]1C(=O)N2C` [Dextro 7,10-dimethyl-1,2,3,5,10,11a-hexahydro-11H-pyrrolo[2,1-c][1,4]benzodiazepin-11-one hydrochloride], the ED50 is 32 mg/kg.

(Values after patent US3947408A, “Pyrrolo-benzodiazepines, method of preparation and method of use” (American Cyanamid Company, priority 1974, dated 1976).)
